Residues, ends and D or L forms follow the SMILES beside them.
Test system: human FLS cells
Assay: Cellular cytotoxicity by release of lactate dehydrogenase (LDH)
Type: cell-based
Settings: presence and absence of cytokine stimulation, 24 hr; IDR-1002 100 μg/ml, IDR-1 200 μg/ml; data not shown
Description: Synovial tissues were obtained from patients with OA in accordance to a protocol by the Institutional Review Board at the University of Manitoba. FLS cells were isolated from the synovial tissues following the procedure taught by Kammouni et al. (2007, Regulation of apoptosis in fibroblast-like synoviocytes by the hypoxia-induced Bcl-2 family member Bcl-2/adenovirus E1B 19-kd protein-interacting protein 3. Arthritis Rheum. 56:2854-2863). […] Cellular cytotoxicity was evaluated by monitoring the release of lactate dehydrogenase (LDH) employing a colorimetric detection kit (Roche Diagnostics, Laval, QC, Canada).
Inflammatory cytokines TNF-α and IL-1β stimulate cells types such as FLS, chondrocytes and macrophages resulting in the production of MMP-3 in arthritic joints. […] In this study we evaluated the impact of IDR peptides on TNF-α and IL-1β-induced MMP-3 production. […] The peptides were not cytotoxic to the FLS cells in the presence and absence of cytokine stimulation, as determined by monitoring the tissue culture supernatants for the release of LDH after 24 hr of stimulation (data not shown). Tissue culture supernatants were monitored after 24 hr of stimulation for MMP-3 production by ELISA. […]

With `CC[C@H](C)[C@H](NC(=O)[C@H](CCCNC(=N)N)NC(=O)[C@H](CO)NC(=O)[C@@H](N)CCCCN)C(=O)N[C@H](C(=O)N1CCC[C@H]1C(=O)N[C@@H](C)C(=O)N[C@H](C(=O)N1CCC[C@H]1C(=O)N[C@H](C(=O)N[C@@H](CO)C(=O)N[C@@H](CC(C)C)C(=O)N[C@@H](CC(C)C)C(=O)O)C(C)C)[C@@H](C)CC)C(C)C` [IDR-1, KSRIVPAIPVSLL, reference compound] (H-KSRIVPAIPVSLL-OH) as the compound, how does the “cytotoxicity to FLS cells (release of LDH)” value read?
The value was “not cytotoxic”.

— patent US20130316963A1, “INNATE DEFENCE REGULATORY PEPTIDE COMPOSITIONS FOR TREATMENT OF ARTHRITIS” (UNIVERSITY OF MANITOBA, priority 2010, published 2013)
